Test results as given in PubChem BioAssay AID248 (DTP/NCI, 2004).
Where “and” joins values, the source holds several entries; their conditions need not be identical. Identical values can stand only once. Inconclusive results and toxic doses are left out. Rule as the data show it: active = T/C of 150% or more; inactive = T/C below 125%.

Tested on: L1210 leukemia ip in BDF1 mice, survival T/C
Test: NCI In Vivo Anticancer Drug Screen. Data for tumor model L1210 Leukemia (intraperitoneal) in B6D2F1 (BDF1) mice
Conditions: endpoint: mean survival time, higher = longer survival
Summary of the method: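 Transplanted-tumor mice were given test agent; controls received vehicle only. Survival readings from the two groups were divided (treated over control).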

[1] = dose: 100.0 mg/kg/injection, schedule: Q01DX009 (ip), vehicle: saline
[2] = dose: 100.0 mg/kg/injection, schedule: Q04DX003 (ip), vehicle: saline with Tween-80
[3] = dose: 200.0 mg/kg/injection, schedule: Q04DX003 (ip), vehicle: saline with Tween-80
[4] = dose: 25.0 mg/kg/injection, schedule: Q01DX009 (ip), vehicle: saline
[5] = dose: 50.0 mg/kg/injection, schedule: Q01DX009 (ip), vehicle: Klucel (hydroxypropylcellulose) (HPC)
[6] = dose: 50.0 mg/kg/injection, schedule: Q01DX009 (ip), vehicle: saline
[7] = dose: 75.0 mg/kg/injection, schedule: Q04DX003 (ip), vehicle: saline
[8] = dose: 100.0 mg/kg/injection, schedule: Q04DX003 (ip), vehicle: Klucel (hydroxypropylcellulose) (HPC)
[9] = dose: 300.0 mg/kg/injection, schedule: Q04DX003 (ip), vehicle: saline
[10] = dose: 12.5 mg/kg/injection, schedule: Q01DX009 (ip), vehicle: saline

Measured: T/C

CC(C)C1CCC(C)(Cl)C2CCC(C)(Cl)CC12 (centres undefined)
inactive: [1] 96 % of control | dose: 200.0 mg/kg/injection, schedule: Q01DX009 (ip), vehicle: saline 91 % of control | dose: 400.0 mg/kg/injection, schedule: Q01DX009 (ip), vehicle: saline 89 % of control

Cc1nc2ccccc2cc1CCl
inactive: dose: 75.0 mg/kg/injection, schedule: Q01DX001 (ip), vehicle: acetone 88 % of control | dose: 150.0 mg/kg/injection, schedule: Q01DX001 (ip), vehicle: acetone 88 % of control

CCCCCC#CC(=O)OCCCC
inactive: dose: 100.0 mg/kg/injection, schedule: Q04DX002 (ip), vehicle: saline with Tween-80 102 % of control | dose: 200.0 mg/kg/injection, schedule: Q04DX002 (ip), vehicle: saline with Tween-80 94 % of control | dose: 400.0 mg/kg/injection, schedule: Q04DX002 (ip), vehicle: saline with Tween-80 108 % of control

CCCOP(=O)(OCCC)C(OC(=O)C(C)(C)C)=C(C)C
inactive: [2] 92 % of control | [3] 96 % of control

CCCCCCCCCCCCCCCCCCOc1ccccc1
inactive: dose: 100.0 mg/kg/injection, schedule: Q01DX009 (sc), vehicle: olive oil, sesame oil, peanut oil 94 % of control | dose: 100.0 mg/kg/injection, schedule: Q04DX003 (sc), vehicle: olive oil, sesame oil, peanut oil 95 % of control | dose: 200.0 mg/kg/injection, schedule: Q01DX009 (sc), vehicle: olive oil, sesame oil, peanut oil 99 % of control | dose: 200.0 mg/kg/injection, schedule: Q04DX003 (sc), vehicle: olive oil, sesame oil, peanut oil 101 % of control | dose: 400.0 mg/kg/injection, schedule: Q01DX009 (sc), vehicle: olive oil, sesame oil, peanut oil 94 % of control | dose: 400.0 mg/kg/injection, schedule: Q04DX003 (sc), vehicle: olive oil, sesame oil, peanut oil 108 % of control

CCN(CC)CCCC(C)Nc1ccnc(/C=C/c2ccc(Cl)cc2)c1 (centres undefined)
inactive: dose: 12.0 mg/kg/injection, schedule: Q01DX009 (ip), vehicle: Klucel (hydroxypropylcellulose) (HPC) 92 % of control | dose: 12.5 mg/kg/injection, schedule: Q04DX003 (ip), vehicle: Klucel (hydroxypropylcellulose) (HPC) 97 % of control | dose: 25.0 mg/kg/injection, schedule: Q01DX009 (ip), vehicle: Klucel (hydroxypropylcellulose) (HPC) 100 % of control | [4] 101 % of control | dose: 25.0 mg/kg/injection, schedule: Q04DX003 (ip), vehicle: Klucel (hydroxypropylcellulose) (HPC) 103 % of control | [5] 95 % of control | [6] 95 % of control | dose: 50.0 mg/kg/injection, schedule: Q04DX003 (ip), vehicle: Klucel (hydroxypropylcellulose) (HPC) 97 % of control | [7] 105 % of control | [8] 96 % of control | [9] 93 % of control

CCC(=O)NC1CC(OC2CC(O)(C(C)=O)Cc3c(O)c4c(c(O)c32)C(=O)c2c(OC)cccc2C4=O)OC(C)C1O (centres undefined)
inactive: dose: 2.0 mg/kg/injection, schedule: Q04DX003 (ip), vehicle: water 104 % of control | dose: 3.12 mg/kg/injection, schedule: Q01DX009 (ip), vehicle: saline with Tween-80 96 % of control | dose: 4.0 mg/kg/injection, schedule: Q04DX003 (ip), vehicle: water 105 % of control | dose: 6.25 mg/kg/injection, schedule: Q01DX009 (ip), vehicle: saline with Tween-80 105 % of control | dose: 8.0 mg/kg/injection, schedule: Q04DX003 (ip), vehicle: water 103 % of control | dose: 12.5 mg/kg/injection, schedule: Q01DX009 (ip), vehicle: saline with Tween-80 105 % of control | dose: 16.0 mg/kg/injection, schedule: Q04DX003 (ip), vehicle: water 101 % of control and 102 % of control | dose: 18.75 mg/kg/injection, schedule: Q04DX003 (ip), vehicle: saline with Tween-80 105 % of control | dose: 25.0 mg/kg/injection, schedule: Q01DX009 (ip), vehicle: saline with Tween-80 111 % of control | dose: 32.0 mg/kg/injection, schedule: Q04DX003 (ip), vehicle: water 116 % of control | dose: 37.5 mg/kg/injection, schedule: Q04DX003 (ip), vehicle: saline with Tween-80 105 % of control | dose: 50.0 mg/kg/injection, schedule: Q01DX009 (ip), vehicle: saline with Tween-80 113 % of control | dose: 64.0 mg/kg/injection, schedule: Q04DX003 (ip), vehicle: water 112 % of control | dose: 75.0 mg/kg/injection, schedule: Q04DX003 (ip), vehicle: saline with Tween-80 105 % of control | dose: 150.0 mg/kg/injection, schedule: Q04DX003 (ip), vehicle: saline with Tween-80 122 % of control | dose: 125.0 micrograms/kg/injection, schedule: Q04DX003 (ip), vehicle: water 100 % of control | dose: 250.0 micrograms/kg/injection, schedule: Q04DX003 (ip), vehicle: water 102 % of control | dose: 500.0 micrograms/kg/injection, schedule: Q04DX003 (ip), vehicle: water 97 % of control | dose: 1000.0 micrograms/kg/injection, schedule: Q04DX003 (ip), vehicle: water 103 % of control | dose: 2000.0 micrograms/kg/injection, schedule: Q04DX003 (ip), vehicle: water 96 % of control

COC(=O)NS(=O)(=O)/C=C/N1CCCC1=O
inactive: dose: 75.0 mg/kg/injection, schedule: Q04DX003 (ip), vehicle: Klucel (hydroxypropylcellulose) (HPC) 96 % of control | dose: 150.0 mg/kg/injection, schedule: Q04DX003 (ip), vehicle: Klucel (hydroxypropylcellulose) (HPC) 100 % of control | dose: 300.0 mg/kg/injection, schedule: Q04DX003 (ip), vehicle: Klucel (hydroxypropylcellulose) (HPC) 100 % of control

O=Cc1ccc(O)c(CN2CCCCC2)c1
inactive: dose: 6.25 mg/kg/injection, schedule: Q01DX009 (ip), vehicle: saline 94 % of control | dose: 6.25 mg/kg/injection, schedule: Q04DX003 (ip), vehicle: saline 100 % of control | [10] 107 % of control | dose: 12.5 mg/kg/injection, schedule: Q04DX003 (ip), vehicle: saline 96 % of control | [4] 96 % of control | dose: 25.0 mg/kg/injection, schedule: Q04DX003 (ip), vehicle: saline 103 % of control

C=CC[Si](C)(C)N1CC1
inactive: dose: 12.5 mg/kg/injection, schedule: Q01DX001 (ip), vehicle: carboxymethylcellulose (CMC) 108 % of control

NNC(=O)c1ccccc1
inactive: [10] 100 % of control | [4] 97 % of control | dose: 50.0 mg/kg/injection, schedule: Q01DX001 (ip), vehicle: saline 90 % of control | [6] 111 % of control | dose: 50.0 mg/kg/injection, schedule: Q04DX003 (ip), vehicle: saline with Tween-80 97 % of control | dose: 100.0 mg/kg/injection, schedule: Q01DX001 (ip), vehicle: saline 108 % of control | [1] 100 % of control

N#CCC(=O)O
inactive: dose: 18.75 mg/kg/injection, schedule: Q01DX009 (ip), vehicle: saline 98 % of control | dose: 37.5 mg/kg/injection, schedule: Q01DX009 (ip), vehicle: saline 95 % of control | dose: 75.0 mg/kg/injection, schedule: Q01DX009 (ip), vehicle: saline 90 % of control

Cc1cc(N(CCO)CCO)c(C)cc1NC(=O)c1ccccc1
inactive: dose: 100.0 mg/kg/injection, schedule: Q01DX001 (ip), vehicle: carboxymethylcellulose (CMC) 106 % of control | dose: 200.0 mg/kg/injection, schedule: Q01DX001 (ip), vehicle: carboxymethylcellulose (CMC) 101 % of control | dose: 400.0 mg/kg/injection, schedule: Q01DX001 (ip), vehicle: carboxymethylcellulose (CMC) 94 % of control

O=C1C(Br)=CC(=C2C=C(Br)C(=O)C(Br)=C2)C=C1Br
inactive: [5] 104 % of control | dose: 100.0 mg/kg/injection, schedule: Q01DX009 (ip), vehicle: Klucel (hydroxypropylcellulose) (HPC) 117 % of control | [8] 96 % of control | dose: 200.0 mg/kg/injection, schedule: Q01DX009 (ip), vehicle: Klucel (hydroxypropylcellulose) (HPC) 104 % of control | dose: 200.0 mg/kg/injection, schedule: Q04DX003 (ip), vehicle: Klucel (hydroxypropylcellulose) (HPC) 108 % of control

CCC(=O)CC(=O)C(=O)OC
inactive: dose: 75.0 mg/kg/injection, schedule: Q01DX001 (ip), vehicle: saline 102 % of control | [7] 105 % of control | dose: 150.0 mg/kg/injection, schedule: Q01DX001 (ip), vehicle: saline 100 % of control | dose: 150.0 mg/kg/injection, schedule: Q04DX003 (ip), vehicle: saline 103 % of control | dose: 300.0 mg/kg/injection, schedule: Q01DX001 (ip), vehicle: saline 104 % of control | [9] 90 % of control

c1nc(SCSc2ncnc3nc[nH]c23)c2[nH]cnc2n1
inactive: [2] 97 % of control | [3] 90 % of control | dose: 400.0 mg/kg/injection, schedule: Q04DX003 (ip), vehicle: saline with Tween-80 90 % of control
